Each compound was assayed against PARP7 (Homo sapiens (Human), UniProt Q7Z3E1) (assay: Enzymatic assay for inhibition of PARP7: TR-FRET displacement of biotinylated Probe A from the TIPARP active site). Conditions: Table A-1.
Type: binding
Outline: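 Percent inhibition derives from the ratio of 665 to 615 nm emission, which reports how much Probe A remains bound to TIPARP. Plates sat 30 min at 25° C before the time-resolved read (320 nm excitation).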

Chain of PARP7 (Q7Z3E1 whole entry): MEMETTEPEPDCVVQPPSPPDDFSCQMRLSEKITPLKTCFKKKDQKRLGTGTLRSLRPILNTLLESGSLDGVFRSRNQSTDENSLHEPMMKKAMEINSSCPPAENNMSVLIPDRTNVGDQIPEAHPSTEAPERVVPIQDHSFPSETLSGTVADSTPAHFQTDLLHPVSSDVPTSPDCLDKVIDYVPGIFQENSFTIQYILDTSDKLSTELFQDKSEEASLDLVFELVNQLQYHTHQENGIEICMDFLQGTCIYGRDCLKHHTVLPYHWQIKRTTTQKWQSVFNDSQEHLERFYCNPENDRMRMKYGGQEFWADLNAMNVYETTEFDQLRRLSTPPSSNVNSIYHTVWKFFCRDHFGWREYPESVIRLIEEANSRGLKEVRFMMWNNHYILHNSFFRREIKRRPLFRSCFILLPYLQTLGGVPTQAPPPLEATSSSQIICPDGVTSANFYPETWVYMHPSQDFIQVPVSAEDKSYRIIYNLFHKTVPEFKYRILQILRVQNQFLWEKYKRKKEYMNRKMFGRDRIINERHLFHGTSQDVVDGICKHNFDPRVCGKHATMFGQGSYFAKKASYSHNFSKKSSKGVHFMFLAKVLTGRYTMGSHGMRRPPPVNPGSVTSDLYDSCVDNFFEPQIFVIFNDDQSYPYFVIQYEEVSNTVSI

Row | Structure (SMILES) | IC50
1 | N#Cc1ccc(NC2CCN(C(=O)CCOC[C@@H]3CCCN3c3cn[nH]c(=O)c3C(F)(F)F)CC2)nc1 [Example 116, 6-[[1-(3-[[(2S)-1-[6-oxo-5-(trifluoromethyl)-1,6-dihydropyridazin-4-yl]pyrrolidin-2-yl]methoxy]propanoyl)piperidin-4-yl]amino]pyridine-3-carbonitrile] | < 100 nM
2 | N#Cc1ccc(N2CCC(NC(=O)CCOC[C@@H]3CCCN3c3cn[nH]c(=O)c3C(F)(F)F)C2)nc1 (stereo partly drawn) [Example 117, N-[1-(5-cyanopyridin-2-yl)pyrrolidin-3-yl]-3-[[(2S)-1-[6-oxo-5-(trifluoromethyl)-1,6-dihydropyridazin-4-yl]pyrrolidin-2-yl]methoxy]propanamide] | 100 to 1000 nM
3 | CC(C)(COC[C@@H]1CCCN1c1cn[nH]c(=O)c1C(F)(F)F)CC(=O)N1CCN(c2ccc(C#N)cn2)CC1 [Example 118, 6-[4-(3,3-dimethyl-4-[[(2S)-1-[6-oxo-5-(trifluoromethyl)-1,6-dihydropyridazin-4-yl]pyrrolidin-2-yl]methoxy]butanoyl)piperazin-1-yl]pyridine-3-carbonitrile] | < 100 nM
4 | N#Cc1ccc(N2CCN(C(=O)C#CCOC[C@@H]3CCCN3c3cn[nH]c(=O)c3C(F)(F)F)CC2)nc1 [Example 119, 6-[4-(4-[[(2S)-1-[6-oxo-5-(trifluoromethyl)-1,6-dihydropyridazin-4-yl]pyrrolidin-2-yl]methoxy]but-2-ynoyl)piperazin-1-yl]pyridine-3-carbonitrile] | < 100 nM
5 | N#Cc1ccc(N2CCN(C(=O)C3CC(OC[C@@H]4CCN(c5cn[nH]c(=O)c5C(F)(F)F)C4)C3)CC2)nc1 (stereo partly drawn) [Example 121A, 6-(4-((1R,3R)-3-((1-(6-oxo-5-(trifluoromethyl)-1,6-dihydropyridazin-4-yl)pyrrolidin-3-yl)methoxy)cyclobutanecarbonyl)piperazin-1-yl)nicotinonitrile] | < 100 nM
6 | N#Cc1ccc(N2CCN(C(=O)[C@H]3C[C@@H](OC[C@H]4CCN(c5cn[nH]c(=O)c5C(F)(F)F)C4)C3)CC2)nc1 [Example 121B, 6-(4-((1S,3S)-3-((1-(6-oxo-5-(trifluoromethyl)-1,6-dihydropyridazin-4-yl)pyrrolidin-3-yl)methoxy)cyclobutanecarbonyl)piperazin-1-yl)nicotinonitrile] | < 100 nM
7 | CO[C@H]1C[C@@H](COCCC(=O)N2CCN(c3ccc(C#N)cn3)CC2)N(c2cn[nH]c(=O)c2C(F)(F)F)C1 [Example 122, 6-[4-(3-[[(2S,4S)-4-methoxy-1-[6-oxo-5-(trifluoromethyl)-1,6-dihydropyridazin-4-yl]pyrrolidin-2-yl]methoxy]propanoyl)piperazin-1-yl]pyridine-3-carbonitrile] | < 100 nM
8 | N#Cc1ccc(N2CCN(C(=O)COCCOCc3cccc4c3CN(c3cn[nH]c(=O)c3C(F)(F)F)C4)CC2)nc1 [Example 124, 6-(4-[2-[2-([2-[6-oxo-5-(trifluoromethyl)-1,6-dihydropyridazin-4-yl]-2,3-dihydro-1H-isoindol-4-yl]methoxy)ethoxy]acetyl]piperazin-1-yl)pyridine-3-carbonitrile] | < 100 nM
9 | N#Cc1ccc(N2CCN(C(=O)N3CC(OC[C@@H]4CCCN4c4cn[nH]c(=O)c4C(F)(F)F)C3)CC2)nc1 [Example 125, 6-[4-(3-[[(2S)-1-[6-oxo-5-(trifluoromethyl)-1,6-dihydropyridazin-4-yl]pyrrolidin-2-yl]methoxy]azetidine-1-carbonyl)piperazin-1-yl]pyridine-3-carbonitrile] | < 100 nM
10 | N#Cc1ccc(N2CCN(C(=O)NCCOC[C@@H]3CCCN3c3cn[nH]c(=O)c3C(F)(F)F)CC2)nc1 [Example 126, 4-(5-cyanopyridin-2-yl)-N-(2-[[(2S)-1-[6-oxo-5-(trifluoromethyl)-1,6-dihydropyridazin-4-yl]pyrrolidin-2-yl]methoxy]ethyl)piperazine-1-carboxamide] | < 100 nM
11 | N#Cc1ccc(N2CCN(C(=O)CCOC[C@@H]3CCCN3c3cn[nH]c(=O)c3C#N)CC2)nc1 [Example 127, 5-[(2S)-2-([3-[4-(5-cyanopyridin-2-yl)piperazin-1-yl]-3-oxopropoxy]methyl)pyrrolidin-1-yl]-3-oxo-2,3-dihydropyridazine-4-carbonitrile] | < 100 nM
12 | C[C@@H](COC[C@@H]1CCCN1c1cn[nH]c(=O)c1C(F)(F)F)CC(=O)N1CCN(c2ccc(C#N)cn2)CC1 [Example 128A] | < 100 nM
13 | C[C@H](COC[C@@H]1CCCN1c1cn[nH]c(=O)c1C(F)(F)F)CC(=O)N1CCN(c2ccc(C#N)cn2)CC1 [Example 128B] | < 100 nM
14 | N#Cc1ccc(N2CCN(C(=O)CCOCC3CCCCN3c3cn[nH]c(=O)c3C(F)(F)F)CC2)nc1 (stereo not drawn) [Example 130, 6-[4-[3-([1-[6-oxo-5-(trifluoromethyl)-1,6-dihydropyridazin-4-yl]piperidin-2-yl]methoxy)propanoyl]piperazin-1-yl]pyridine-3-carbonitrile] | 100 to 1000 nM
15 | N#Cc1ccc(N2CCN(C(=O)CCOCC3CCCCN3c3cn[nH]c(=O)c3Br)CC2)nc1 (stereo not drawn) [Example 131, 6-(4-(3-((1-(5-bromo-6-oxo-1,6-dihydropyridazin-4-yl)piperidin-2-yl)methoxy)propanoyl)piperazin-1-yl)nicotinonitrile] | 100 to 1000 nM
16 | N#Cc1ccc(N2CCN(C(=O)CCNC(=O)C[C@@H]3CCCN3c3cn[nH]c(=O)c3C(F)(F)F)CC2)nc1 [Example 132, N-[3-[4-(5-cyanopyridin-2-yl)piperazin-1-yl]-3-oxopropyl]-2-[(2S)-1-[6-oxo-5-(trifluoromethyl)-1,6-dihydropyridazin-4-yl]pyrrolidin-2-yl]acetamide] | 100 to 1000 nM
17 | N#Cc1ccc(N2CCN(C(=O)CCOC[C@@H]3C[C@H](C(F)(F)F)CN3c3cn[nH]c(=O)c3C(F)(F)F)CC2)nc1 [Example 133, 6-[4-(3-[[(2S,4S)-1-[6-oxo-5-(trifluoromethyl)-1,6-dihydropyridazin-4-yl]-4-(trifluoromethyl)pyrrolidin-2-yl]methoxy]propanoyl)piperazin-1-yl]pyridine-3-carbonitrile] | < 100 nM
18 | N#Cc1ccc(N2CCN(CCC(=O)NC[C@@H]3CCCN3c3cn[nH]c(=O)c3C(F)(F)F)CC2)nc1 [Example 134, (S)-3-(4-(5-cyanopyridin-2-yl)piperazin-1-yl)-N-((1-(6-oxo-5-(trifluoromethyl)-1,6-dihydropyridazin-4-yl)pyrrolidin-2-yl)methyl)propanamide] | ≥ 1000 nM
19 | N#Cc1ccc(N2CCN(C(=O)CCNC[C@@H]3CCCN3c3cn[nH]c(=O)c3C(F)(F)F)CC2)nc1 [Example 135, 6-[4-[3-([[(2S)-1-[6-oxo-5-(trifluoromethyl)-1,6-dihydropyridazin-4-yl]pyrrolidin-2-yl]methyl]amino)propanoyl]piperazin-1-yl]pyridine-3-carbonitrile] | < 100 nM
20 | CN(CCC(=O)N1CCN(c2ccc(C#N)cn2)CC1)C[C@@H]1CCCN1c1cn[nH]c(=O)c1C(F)(F)F [Example 136, (S)-6-(4-(3-(methyl((1-(6-oxo-5-(trifluoromethyl)-1,6-dihydropyridazin-4-yl)pyrrolidin-2-yl)methyl)amino)propanoyl)piperazin-1-yl)nicotinonitrile] | < 100 nM
21 | CN(C[C@@H]1CCCN1c1cn[nH]c(=O)c1C(F)(F)F)C(=O)CCN1CCN(c2ccc(C#N)cn2)CC1 [Example 138, 3-[4-(5-cyanopyridin-2-yl)piperazin-1-yl]-N-methyl-N-[[(2S)-1-[6-oxo-5-(trifluoromethyl)-1,6-dihydropyridazin-4-yl]pyrrolidin-2-yl]methyl]propanamide] | ≥ 1000 nM

Results, then the compound that gave them:

Row | IC50 | Structure (SMILES)
22 | < 100 nM | C[C@H](CC(=O)N1CCN(c2ccc(C#N)cn2)CC1)OC[C@@H]1CCCN1c1cn[nH]c(=O)c1C(F)(F)F [Example 123A, 6-[4-[(3R)-3-[[(2S)-1-[6-oxo-5-(trifluoromethyl)-1,6-dihydropyridazin-4-yl]pyrrolidin-2-yl]methoxy]butanoyl]piperazin-1-yl]pyridine-3-carbonitrile]
23 | < 100 nM | C[C@@H](CC(=O)N1CCN(c2ccc(C#N)cn2)CC1)OC[C@@H]1CCCN1c1cn[nH]c(=O)c1C(F)(F)F [Example 123B, 6-[4-[(3S)-3-[[(2S)-1-[6-oxo-5-(trifluoromethyl)-1,6-dihydropyridazin-4-yl]pyrrolidin-2-yl]methoxy]butanoyl]piperazin-1-yl]pyridine-3-carbonitrile]
24 | 100 to 1000 nM | N#Cc1ccc(N2CCN(C(=O)N3CC[C@@H](OC[C@@H]4CCCN4c4cn[nH]c(=O)c4C(F)(F)F)C3)CC2)nc1 [Example 129A, 6-[4-[(3R)-3-[[(2S)-1-[6-oxo-5-(trifluoromethyl)-1,6-dihydropyridazin-4-yl]pyrrolidin-2-yl]methoxy]pyrrolidine-1-carbonyl]piperazin-1-yl]pyridine-3-carbonitrile]
25 | < 100 nM | N#Cc1ccc(N2CCN(C(=O)N3CC[C@H](OC[C@@H]4CCCN4c4cn[nH]c(=O)c4C(F)(F)F)C3)CC2)nc1 [Example 129B, 6-[4-[(3S)-3-[[(2S)-1-[6-oxo-5-(trifluoromethyl)-1,6-dihydropyridazin-4-yl]pyrrolidin-2-yl]methoxy]pyrrolidine-1-carbonyl]piperazin-1-yl]pyridine-3-carbonitrile]
26 | < 100 nM | N#Cc1ccc(N2CCN(C(=O)CCOC[C@@H]3c4ncccc4CN3c3cn[nH]c(=O)c3C(F)(F)F)CC2)nc1 [Example 137A, 6-[4-(3-[[(7S)-6-[6-oxo-5-(trifluoromethyl)-1,6-dihydropyridazin-4-yl]-5H,6H,7H-pyrrolo[3,4-b]pyridin-7-yl]methoxy]propanoyl)piperazin-1-yl]pyridine-3-carbonitrile]
27 | < 100 nM | N#Cc1ccc(N2CCN(C(=O)CCOC[C@H]3c4ncccc4CN3c3cn[nH]c(=O)c3C(F)(F)F)CC2)nc1 [Example 137B, 6-[4-(3-[[(7R)-6-[6-oxo-5-(trifluoromethyl)-1,6-dihydropyridazin-4-yl]-5H,6H,7H-pyrrolo[3,4-b]pyridin-7-yl]methoxy]propanoyl)piperazin-1-yl]pyridine-3-carbonitrile]

Reference: US10550105B2 (Ribon Therapeutics Inc., priority 2018, dated 2020)
